Test [1] concerns the target T1, human GPR139 receptor (Homo sapiens, UniProt Q6DWJ6).
T1 construct: expressed in transfected cells; host or cells: T-REx-CHO (Thermo Fisher Scientific), doxycycline-induced
T1 sequence (Q6DWJ6 1-353): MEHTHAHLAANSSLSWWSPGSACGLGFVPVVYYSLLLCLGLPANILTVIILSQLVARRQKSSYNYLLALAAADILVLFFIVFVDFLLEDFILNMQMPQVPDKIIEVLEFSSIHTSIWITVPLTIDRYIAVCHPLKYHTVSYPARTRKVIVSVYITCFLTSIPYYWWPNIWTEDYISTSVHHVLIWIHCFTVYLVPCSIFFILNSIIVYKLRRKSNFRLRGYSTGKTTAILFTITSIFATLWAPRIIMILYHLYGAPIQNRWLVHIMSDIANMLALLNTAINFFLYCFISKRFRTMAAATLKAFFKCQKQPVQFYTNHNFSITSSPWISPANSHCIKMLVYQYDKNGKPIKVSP
The test is described as follows: GPR139 Competition Binding (membrane-based, tritium-labeled ligand). The note with it: T-REx-CHO membranes with human GPR139; 6.5 nM tritium-labeled ligand; 11-point curve, 30 μM maximum concentration; read-out: GPR139 Binding Affinity (pKi) (converted). An outline of the steps:
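Membranes came from doxycycline-induced T-REx-CHO cells expressing human GPR139. They were incubated 20 min at room temperature with 6.5 nM tritiated ligand and compound (11 points, top 30 μM) in HEPES pH 7.3 buffer with MgCl2/CaCl2. Filter-bound counts gave Ki by four-parameter fit, reported as pKi.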

Test [2] has as its target T1, human GPR139 receptor. The test can be described thus: Measurement of GPR139 Activation Via Calcium Signaling (FLIPR, T-REx-CHO cells). In kind it is cell-based. The conditions noted are these: T-REx-CHO cells stably expressing human GPR139, 11-point dose response, 10 μM maximum concentration, read-out: GPR139 Potency (pEC50) (converted). The essentials:
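T-REx-CHO cells stably carrying human GPR139 under tetracycline control, induced with 2 μg/mL doxycycline for 17 h at 37 °C, loaded 40 min with Calcium 5 dye plus probenecid in HBSS/HEPES pH 7.4. Agonist added as 11-point series (10 μM top); fluorescence read 1 min; pEC50 from four-parameter fit.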

Structures are written as SMILES.

Turning to `COc1ccc([C@H](C)NC(=O)Cn2nc(C)c3cnn(-c4ccccc4)c3c2=O)cc1` [Example 2, (S)—N-(1-(4-methoxyphenyl)ethyl)-2-(4-methyl-7-oxo-1-phenyl-1,7-dihydro-6H-pyrazolo[3,4-d]pyridazin-6-yl)acetamide], at human GPR139 receptor [1], the Ki is 871 nM. The EC50 at human GPR139 receptor [2] was 56.2 nM.
The matching figures for `Cc1nn(CC(=O)N[C@@H](C)c2ccc(C(F)(F)F)cc2)c(=O)c2c(C3CC3)nn(C)c12` [Example 120, (S)-2-(3-cyclopropyl-1,7-dimethyl-4-oxo-1,4-dihydro-5H-pyrazolo[3,4-d]pyridazin-5-yl)-N-(1-(4-(trifluoromethyl)phenyl)ethyl)acetamide]: 17.4 nM and 182 nM.
The matching figures for `Cc1ccc([C@H](C)NC(=O)Cn2nc(C3CC3)c3cnn(-c4ccccc4)c3c2=O)c(F)c1` [Example 42, (S)-2-(4-cyclopropyl-7-oxo-1-phenyl-1,7-dihydro-6H-pyrazolo[3,4-d]pyridazin-6-yl)-N-(1-(2-fluoro-4-methylphenyl)ethyl)acetamide]: 19.5 nM and no less than 10000 nM.
The matching figures for `Cc1nn(CC(=O)N[C@@H](C)c2ccc(C(F)(F)F)cc2)c(=O)c2c1cnn2C` [Example 40, (S)-2-(1,4-dimethyl-7-oxo-1,7-dihydro-6H-pyrazolo[3,4-d]pyridazin-6-yl)-N-(1-(4-(trifluoromethyl)phenyl)ethyl)acetamide]: 251 nM and 33.1 nM.
`Cc1ccc([C@H](C)NC(=O)Cn2nc(C3CC3)c3cnn(-c4ccccc4)c3c2=O)cc1` [Example 43, (S)-2-(4-cyclopropyl-7-oxo-1-phenyl-1,7-dihydro-6H-pyrazolo[3,4-d]pyridazin-6-yl)-N-(1-(p-tolyl)ethyl)acetamide]: the Ki on human GPR139 receptor [1] is 89.1 nM. For the same compound, the EC50 on human GPR139 receptor [2] is 708 nM.
The matching figures for `[2H]C([2H])([2H])c1ccc([C@H](C)NC(=O)Cn2ncc3c(c(C)nn3C3CC3)c2=O)cc1` [Example 167, (S)-2-(1-cyclopropyl-3-methyl-4-oxo-1,4-dihydro-5H-pyrazolo[3,4-d]pyridazin-5-yl)-N-(1-(4-(methyl-d3)phenyl)ethyl)acetamide]: 316 nM and 63.1 nM.
In the case of `Cc1nn(C2CC2)c2cnn(CC(=O)N[C@@H](C)c3ccc(C(F)(F)F)cn3)c(=O)c12` [Example 32], the Ki at human GPR139 receptor [1] is 30200 nM. The EC50 at human GPR139 receptor [2] was 617 nM.
The matching figures for `Cc1ccc([C@H](C)NC(=O)Cn2nc(C)c3cnn(C)c3c2=O)c(F)c1` [Example 41, (S)-2-(1,4-dimethyl-7-oxo-1,7-dihydro-6H-pyrazolo[3,4-d]pyridazin-6-yl)-N-(1-(2-fluoro-4-methylphenyl)ethyl)acetamide]: 74.1 nM and 34.7 nM.
As to `Cc1nn(CC(=O)N[C@@H](C)c2ccc(OC(F)(F)F)cc2)c(=O)c2c1cnn2C(C)(C)C` [Example 15, (S)-2-(1-(tert-butyl)-4-methyl-7-oxo-1,7-dihydro-6H-pyrazolo[3,4-d]pyridazin-6-yl)-N-(1-(4-(trifluoromethoxy)phenyl)ethyl)acetamide], on human GPR139 receptor [1], the Ki is 57.5 nM. Further, the EC50 on human GPR139 receptor [2] is 617 nM.
The matching figures for `Cc1ccc([C@H](C)NC(=O)Cn2ncc3c(c(C(F)(F)F)nn3C)c2=O)c(F)c1` [Example 170, (S)—N-(1-(2-fluoro-4-methylphenyl)ethyl)-2-(1-methyl-4-oxo-3-(trifluoromethyl)-1,4-dihydro-5H-pyrazolo[3,4-d]pyridazin-5-yl)acetamide]: 20.9 nM and 72.4 nM.
The matching figures for `Cc1ccc([C@H](C)NC(=O)Cn2nc(C)c3c(c(C4CC4)nn3C)c2=O)cc1` [Example 119, (S)-2-(3-cyclopropyl-1,7-dimethyl-4-oxo-1,4-dihydro-5H-pyrazolo[3,4-d]pyridazin-5-yl)-N-(1-(p-tolyl)ethyl)acetamide]: 7.94 nM and 33.9 nM.
Turning to `Cc1ccc([C@H](C)NC(=O)Cn2ncc3c(c(C)cn3C3CC3)c2=O)cc1` [Example 147, (S)-2-(1-cyclopropyl-3-methyl-4-oxo-1,4-dihydro-5H-pyrrolo[2,3-d]pyridazin-5-yl)-N-(1-(p-tolyl)ethyl)acetamide], the Ki on human GPR139 receptor [1] was 7.59 nM. Besides, the EC50 on human GPR139 receptor [2] was 33.1 nM.
The matching figures for `Cc1nn(C2CCC2)c2cnn(CC(=O)N[C@@H](C)c3ccc(C(F)(F)F)cc3)c(=O)c12` [Example 155, (S)-2-(1-cyclobutyl-3-methyl-4-oxo-1,4-dihydro-5H-pyrazolo[3,4-d]pyridazin-5-yl)-N-(1-(4-(trifluoromethyl)phenyl)ethyl)acetamide]: 178 nM and 87.1 nM.
The matching figures for `Cc1nn(CC(=O)N[C@@H](C)c2ccc(OC(F)(F)F)cc2)c(=O)c2c1cnn2-c1ccccc1` [Example 5, (S)-2-(4-methyl-7-oxo-1-phenyl-1,7-dihydro-6H-pyrazolo[3,4-d]pyridazin-6-yl)-N-(1-(4-(trifluoromethoxy)phenyl)ethyl)acetamide]: 93.3 nM and 224 nM.
For the compound `C[C@H](NC(=O)Cn1ncc2c(C3CC3)cn(C)c2c1=O)c1ccc(C(F)(F)F)cc1` [Example 159, (S)-2-(3-cyclopropyl-1-methyl-7-oxo-1,7-dihydro-6H-pyrrolo[2,3-d]pyridazin-6-yl)-N-(1-(4-(trifluoromethyl)phenyl)ethyl)acetamide], on human GPR139 receptor [1], the Ki was 79.4 nM. Besides, the EC50 on human GPR139 receptor [2] is 100 nM.
On to `CC(C)c1nn(CC(=O)N[C@@H](C)c2ccc(C(F)(F)F)cc2)c(=O)c2c1cnn2-c1ccccc1` [Example 4, (S)-2-(4-isopropyl-7-oxo-1-phenyl-1,7-dihydro-6H-pyrazolo[3,4-d]pyridazin-6-yl)-N-(1-(4-(trifluoromethyl)phenyl)ethyl)acetamide], for which the Ki at human GPR139 receptor [1] was 91.2 nM. Besides, on human GPR139 receptor [2], the EC50 is no less than 10000 nM.
For the compound `Cc1ccc([C@H](C)NC(=O)Cn2nc(C)c3cnn(-c4ccccc4)c3c2=O)c(F)c1` [Example 6, (S)—N-(1-(2-fluoro-4-methylphenyl)ethyl)-2-(4-methyl-7-oxo-1-phenyl-1,7-dihydro-6H-pyrazolo[3,4-d]pyridazin-6-yl)acetamide], at human GPR139 receptor [1], the Ki was 23.4 nM. In addition, on human GPR139 receptor [2], the EC50 is no less than 10000 nM.
For the compound `Cc1ccc([C@H](C)NC(=O)Cn2nc(C)c3cnn(-c4ccccc4)c3c2=O)cc1` [Example 1], the Ki on human GPR139 receptor [1] is 55 nM. On human GPR139 receptor [2], the EC50 was 51.3 nM.
On to `Cc1nn(C)c2cnn(CC(=O)N[C@@H](C)c3ccc(C(F)(F)F)cc3)c(=O)c12` [Example 37, (S)-2-(1,3-dimethyl-4-oxo-1,4-dihydro-5H-pyrazolo[3,4-d]pyridazin-5-yl)-N-(1-(4-(trifluoromethyl)phenyl)ethyl)acetamide], for which the Ki on human GPR139 receptor [1] is 355 nM. Moreover, on human GPR139 receptor [2], the EC50 is 26.3 nM.
The matching figures for `C[C@H](NC(=O)Cn1ncc2c(cnn2C)c1=O)c1ccc(C(F)(F)F)cc1` [Example 34, (S)-2-(1-methyl-4-oxo-1,4-dihydro-5H-pyrazolo[3,4-d]pyridazin-5-yl)-N-(1-(4-(trifluoromethyl)phenyl)ethyl)acetamide]: 6030 nM and 70.8 nM.
Turning to `Cc1ccc([C@H](C)NC(=O)Cn2nc(C(C)C)c3cnn(-c4ccccc4)c3c2=O)c(F)c1` [Example 8, (S)—N-(1-(2-fluoro-4-methylphenyl)ethyl)-2-(4-isopropyl-7-oxo-1-phenyl-1,7-dihydro-6H-pyrazolo[3,4-d]pyridazin-6-yl)acetamide], the Ki at human GPR139 receptor [1] is 27.5 nM. Further, the EC50 on human GPR139 receptor [2] was no less than 10000 nM.
The matching figures for `Cc1ccc([C@H](C)NC(=O)Cn2nc(C)c3c(c(C)nn3C(C)C)c2=O)cc1` [Example 55, (S)-2-(1-isopropyl-3,7-dimethyl-4-oxo-1,4-dihydro-5H-pyrazolo[3,4-d]pyridazin-5-yl)-N-(1-(p-tolyl)ethyl)acetamide]: 380 nM and 83.2 nM.
The matching figures for `C[C@H](NC(=O)Cn1ncc2ccn(C)c2c1=O)c1ccc(Cl)cc1` [Example 161, (S)—N-(1-(4-chlorophenyl)ethyl)-2-(1-methyl-7-oxo-1,7-dihydro-6H-pyrrolo[2,3-d]pyridazin-6-yl)acetamide]: 105 nM and 8.51 nM.
The matching figures for `Cc1ccc([C@H](C)NC(=O)Cn2ncc3c(c(C)cn3C3CC3)c2=O)cc1F` [Example 62, (S)-2-(1-cyclopropyl-3-methyl-4-oxo-1,4-dihydro-5H-pyrrolo[2,3-d]pyridazin-5-yl)-N-(1-(3-fluoro-4-methylphenyl)ethyl)acetamide]: 2.14 nM and 25.1 nM.
On to `Cc1nn(C2CC2)c2cnn(CC(=O)N[C@@H](C)c3c(F)cc(F)cc3F)c(=O)c12` [Example 133, (S)-2-(1-cyclopropyl-3-methyl-4-oxo-1,4-dihydro-5H-pyrazolo[3,4-d]pyridazin-5-yl)-N-(1-(2,4,6-trifluorophenyl)ethyl)acetamide], for which the Ki at human GPR139 receptor [1] was 316 nM. In addition, at human GPR139 receptor [2], the EC50 was 295 nM.

The record behind these values is patent US12370192B2, “Azole-fused pyridazin-3(2H)-one derivatives” (TAKEDA PHARMACEUTICAL COMPANY LIMITED, priority 2019, dated 2025).
